Assays:
Type in all cases: in vivo
Kochia (Kochia scoparia) [1] = assay: Test A preemergence; settings: Bassia scoparia, pre-emergence, 240 h, Preemergence
Summary of the method: (§1)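 Preemergence directed soil spray on seeded pots, or postemergence application to plants 2–10 cm, one- to two-leaf. Solvent mixture non-phytotoxic, with surfactant. Scored ~10 d later, visually, 0–100 vs untreated.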

[2] = system: giant foxtail (Setaria faberii); assay: Test A preemergence; settings: Setaria faberi, pre-emergence, 240 h, Preemergence
Summary of the method: as §1

[3] = system: ragweed (common ragweed, Ambrosia elatior); assay: Test A preemergence; settings: Ambrosia artemisiifolia, pre-emergence, 240 h, Preemergence
Summary of the method: as §1

[4] = system: pigweed (Amaranthus retroflexus); assay: Test A preemergence; settings: Amaranthus retroflexus, pre-emergence, 240 h, Preemergence
[5] = system: barnyardgrass (Echinochloa crus-galli); assay: Test A preemergence; settings: Echinochloa crus-galli, pre-emergence, 240 h, Preemergence
Summary of the method: as §1

[6] = system: ryegrass, Italian (Italian ryegrass, Lolium multiflorum); assay: Test A preemergence; settings: Lolium multiflorum, pre-emergence, 240 h, Preemergence
Summary of the method: as §1

Kochia (Kochia scoparia) [7] = assay: Test A postemergence; settings: Bassia scoparia, post-emergence, 240 h
Summary of the method: as §1

[8] = system: blackgrass (Alopecurus myosuroides); assay: Test A postemergence; settings: Alopecurus myosuroides, post-emergence, 240 h
Summary of the method: as §1

[9] = system: giant foxtail (Setaria faberii); assay: Test A postemergence; settings: Setaria faberi, post-emergence, 240 h
Summary of the method: as §1

[10] = system: Galium (catchweed bedstraw, Galium aparine); assay: Test A postemergence; settings: Galium, post-emergence, 240 h
Summary of the method: as §1

[11] = system: ragweed (common ragweed, Ambrosia elatior); assay: Test A postemergence; settings: Ambrosia artemisiifolia, post-emergence, 240 h
Summary of the method: as §1

[12] = system: pigweed (Amaranthus retroflexus); assay: Test A postemergence; settings: Amaranthus retroflexus, post-emergence, 240 h
Summary of the method: as §1

[13] = system: barnyardgrass (Echinochloa crus-galli); assay: Test A postemergence; settings: Echinochloa crus-galli, post-emergence, 240 h
Summary of the method: as §1

corn (Zea mays) = assay: Test A postemergence; settings: Zea mays, post-emergence, 240 h
Summary of the method: as §1

[14] = system: wheat (Triticum aestivum); assay: Test A postemergence; settings: Triticum aestivum, post-emergence, 240 h
Summary of the method: as §1

[15] = system: ryegrass, Italian (Italian ryegrass, Lolium multiflorum); assay: Test A postemergence; settings: Lolium multiflorum, post-emergence, 240 h
Summary of the method: as §1

[16] = system: ducksalad (Heteranthera limosa); assay: Test B flooded paddy test; settings: Heteranthera limosa, 250 g ai/ha, Flood; 0 to 100 scale where 0 is no effect and 100 is complete control; read-out: Ducksalad plant response rating
Summary of the method: (§2)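 2-leaf plants; pots flooded 3 cm over soil; cpd added to paddy water; depth held; greenhouse 13–15 d; visual rating vs controls, 0 = no effect, 100 = complete control.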

rice (Oryra sativa) = assay: Test B flooded paddy test; settings: Oryza sativa, 250 g ai/ha, Flood; 0 to 100 scale where 0 is no effect and 100 is complete control; read-out: Rice plant response rating
Summary of the method: as §2

[17] = system: barnyardgrass (Echinochloa crus-galli); assay: Test B flooded paddy test; settings: Echinochloa crus-galli, 250 g ai/ha, Flood; 0 to 100 scale where 0 is no effect and 100 is complete control; read-out: Barnyardgrass plant response rating
Summary of the method: as §2

[18] = system: sedge, umbrella (small-flower umbrella sedge, Cyperus difformis); assay: Test B flooded paddy test; settings: Cyperus difformis, 250 g ai/ha, Flood; 0 to 100 scale where 0 is no effect and 100 is complete control; read-out: Sedge, Umbrella plant response rating
Summary of the method: as §2

CN1C[C@H](c2ccc(C(F)(F)F)cn2)[C@@H](C(=O)Nc2cccc(F)c2F)C1=O [Compound 1052]
pest or weed control at 31 g/ha (Kochia (Kochia scoparia) [1]; 31 g ai/ha, 0 to 100 scale where 0 is no effect and 100 is complete control, read-out: Kochia plant response rating): 20% | pest or weed control at 125 g/ha (Kochia (Kochia scoparia) [1]; 125 g ai/ha, visual injury rating after approximately 10 d, read-out: Kochia plant response rating (0 to 100 scale, 0 is no effect, 100 is complete control)): 70% | pest or weed control at 125 g/ha ([2]; 125 g ai/ha, visual injury rating after approximately 10 d, read-out: Foxtail, Giant plant response rating (0 to 100 scale, 0 is no effect, 100 is complete control)): 90% | pest or weed control at 31 g/ha ([2]; 31 g ai/ha, 0 to 100 scale (0 no effect, 100 complete control), read-out: Plant response rating, Foxtail, Giant): 80% | pest or weed control at 31 g/ha ([3]; 31 g ai/ha, 0 to 100 scale where 0 is no effect and 100 is complete control, read-out: Ragweed plant response rating): 0% | pest or weed control at 125 g/ha ([3]; 125 g ai/ha, visual injury rating after approximately 10 d, read-out: Ragweed plant response rating (0 to 100 scale, 0 is no effect, 100 is complete control)): 20% | pest or weed control at 31 g/ha ([4]; 31 g ai/ha, 0 to 100 scale where 0 is no effect and 100 is complete control, read-out: Pigweed plant response rating): 40% | pest or weed control at 125 g/ha ([4]; 125 g ai/ha, visual injury rating after approximately 10 d, read-out: Pigweed plant response rating (0 to 100 scale, 0 is no effect, 100 is complete control)): 80% | pest or weed control at 125 g/ha ([5]; 125 g ai/ha, visual injury rating after approximately 10 d, read-out: Barnyardgrass plant response rating (0 to 100 scale, 0 is no effect, 100 is complete control)): 90% | pest or weed control at 31 g/ha ([5]; 31 g ai/ha, 0 to 100 scale (0 no effect, 100 complete control), read-out: Plant response rating, Barnyardgrass): 30% | pest or weed control at 31 g/ha ([6]; 31 g ai/ha, 0 to 100 scale where 0 is no effect and 100 is complete control, read-out: Ryegrass, Italian plant response rating): 0% | pest or weed control at 125 g/ha ([6]; 125 g ai/ha, visual injury rating after approximately 10 d, read-out: Ryegrass, Italian plant response rating (0 to 100 scale, 0 is no effect, 100 is complete control)): 30% | pest or weed control at 125 g/ha (Kochia (Kochia scoparia) [7]; 125 g ai/ha, postemergence, visual injury on 0 to 100 scale (0 no effect, 100 complete control), approx. 10 d, read-out: Kochia plant response rating): 40% | pest or weed control at 31 g/ha (Kochia (Kochia scoparia) [7]; Postemergence, 31 g ai/ha, visual injury after approx. 10 d, 0 to 100 scale, 0 no effect, 100 complete control, read-out: Plant response rating, Kochia): 0% | pest or weed control at 125 g/ha ([8]; 125 g ai/ha, postemergence, visual injury on 0 to 100 scale (0 no effect, 100 complete control), approx. 10 d, read-out: Blackgrass plant response rating): 20% | pest or weed control at 31 g/ha ([8]; Postemergence, 31 g ai/ha, visual injury after approx. 10 d, 0 to 100 scale, 0 no effect, 100 complete control, read-out: Plant response rating, Blackgrass): 0% | pest or weed control at 125 g/ha ([9]; 125 g ai/ha, postemergence, visual injury on 0 to 100 scale (0 no effect, 100 complete control), approx. 10 d, read-out: Foxtail, Giant plant response rating): 70% | pest or weed control at 31 g/ha ([9]; Postemergence, 31 g ai/ha, visual injury after approx. 10 d, 0 to 100 scale, 0 no effect, 100 complete control, read-out: Plant response rating, Foxtail, Giant): 30% | pest or weed control at 125 g/ha ([10]; 125 g ai/ha, postemergence, visual injury on 0 to 100 scale (0 no effect, 100 complete control), approx. 10 d, read-out: Galium plant response rating): 70% | pest or weed control at 31 g/ha ([10]; Postemergence, 31 g ai/ha, visual injury after approx. 10 d, 0 to 100 scale, 0 no effect, 100 complete control, read-out: Plant response rating, Galium): 40% | pest or weed control at 125 g/ha ([11]; 125 g ai/ha, postemergence, visual injury on 0 to 100 scale (0 no effect, 100 complete control), approx. 10 d, read-out: Ragweed plant response rating): 30% | pest or weed control at 31 g/ha ([11]; Postemergence, 31 g ai/ha, visual injury after approx. 10 d, 0 to 100 scale, 0 no effect, 100 complete control, read-out: Plant response rating, Ragweed): 0% | pest or weed control at 125 g/ha ([12]; 125 g ai/ha, postemergence, visual injury on 0 to 100 scale (0 no effect, 100 complete control), approx. 10 d, read-out: Pigweed plant response rating): 30% | pest or weed control at 31 g/ha ([12]; Postemergence, 31 g ai/ha, visual injury after approx. 10 d, 0 to 100 scale, 0 no effect, 100 complete control, read-out: Plant response rating, Pigweed): 0% | pest or weed control at 125 g/ha ([13]; 125 g ai/ha, postemergence, visual injury on 0 to 100 scale (0 no effect, 100 complete control), approx. 10 d, read-out: Barnyardgrass plant response rating): 80% | pest or weed control at 31 g/ha ([13]; Postemergence, 31 g ai/ha, visual injury after approx. 10 d, 0 to 100 scale, 0 no effect, 100 complete control, read-out: Plant response rating, Barnyardgrass): 30% | plant injury at 125 g/ha (corn (Zea mays); 125 g ai/ha, postemergence, visual injury on 0 to 100 scale (0 no effect, 100 complete control), approx. 10 d, read-out: Corn plant response rating): 0% | Corn plant response rating (crop injury, 0 = no effect, 100 = complete kill) at 31 g/ha (corn (Zea mays); Postemergence, 31 g ai/ha, visual injury after approx. 10 d, 0 to 100 scale, 0 no effect, 100 complete control): 0% | plant injury at 125 g/ha ([14]; 125 g ai/ha, postemergence, visual injury on 0 to 100 scale (0 no effect, 100 complete control), approx. 10 d, read-out: Wheat plant response rating): 0% | plant injury at 31 g/ha ([14]; Postemergence, 31 g ai/ha, visual injury after approx. 10 d, 0 to 100 scale, 0 no effect, 100 complete control, read-out: Plant response rating, Wheat): 0% | pest or weed control at 125 g/ha ([15]; 125 g ai/ha, postemergence, visual injury on 0 to 100 scale (0 no effect, 100 complete control), approx. 10 d, read-out: Ryegrass, Italian plant response rating): 20% | pest or weed control at 31 g/ha ([15]; Postemergence, 31 g ai/ha, visual injury after approx. 10 d, 0 to 100 scale, 0 no effect, 100 complete control, read-out: Plant response rating, Ryegrass, Italian): 0% | pest or weed control at 250 g/ha [16]: 100% | pest or weed control at 250 g/ha (rice (Oryra sativa)): 0% | pest or weed control at 250 g/ha [17]: 85% | pest or weed control at 250 g/ha [18]: 0%

From patent US12077503B2, “Substituted cyclic amides and their use as herbicides” (FMC CORPORATION, priority 2015, dated 2024)
